We go through 1 molecule from patent US6124456A, “Pyrazolopyridine compound and pharmaceutical use thereof” (Fujisawa Pharmaceutical Co., Ltd., priority 1996, dated 2000).

The assay has as its system human A1 receptor. The assay is described as follows: Adenosine antagonistic activity: radioligand binding with 3H-DPCPX. The settings on record: at the dose of 1.0×10^-7 M; radioligand 3H-DPCPX 2×10^-9 M. The text has this: Test: Adenosine Antagonistic Activity
The adenosine antagonistic activity of the test compound was examined by radioligand binding techniques using 8-cyclopentyl-1,3-dipropylxanthine, dipropyl-2,3-^3 H(N)] (^3 H-DPCPX, 2×10^-9 M) for human A^1 receptor.

Take `CN1CCC(n2nc(-c3c(-c4ccccc4)nn4ccccc34)ccc2=O)CC1` [Example 2, 3-[2-(1-methylpiperidin-4-yl)-3-oxo-2,3-dihydropyridazin-6-yl]-2-phenylpyrazolo[1,5-a]pyridine]: the “inhibition (%)” value was “more than 90%”.
